Marks after values point to notes of the source that are not given here.
Legend:
[1] = system: patients with Alagille syndrome (ALGS); test: ASSERT phase 3 trial: ObsRO scratching score and pruritus response; format: in vivo, human; conditions: 120 μg/kg/day
Protocol: Odevixibat is an orally administered, potent, luminally restricted, selective IBAT inhibitor in development to treat cholestatic liver diseases. In this phase 3, double-blind, randomized, 24-week trial (ASSERT), the efficacy and safety of odevixibat versus placebo was evaluated in patients with Alagille Syndrome (ALGS). The efficacy of odevixibat in patients with ALGS was evaluated in a 24-week, randomized, double-blind, placebo-controlled trial conducted in 52 patients with a confirmed diagnosis of ALGS (NCT04674761; ASSERT). Patients were randomized 2:1 to receive odevixibat 120 μg/kg/day or placebo.
The study consisted of a screening phase and parallel-design treatment period. Two screening visits occurred: the first took place during days −56 to −21 prior to the first dose of study drug and the second occurred during days −49 to ˜14. On day 0, all eligible patients were randomized 2:1 to oral, 120 μg/kg/day odevixibat or once-daily placebo. Eligibility for randomization was determined using pruritus or scratching reports from observer reported outcome (ObsRO)/patient reported outcome (PRO) data for evaluation of itching (PRO), scratching (ObsRO), and sleep disturbance (PRO and ObsRO) in the 14 days before Study Day 1, clinical genetic confirmation of diagnosis, and the liver biochemistry evaluations from the previous screening visits. After written informed consent was obtained, an Interactive Web Response System (IWRS) was used to assign patients to treatment. The randomization codes were computer generated by Albireo or a qualified randomization vendor.
A single primary endpoint was evaluated. The primary endpoint in this study was the change from baseline in scratching to Month 6 (Weeks 21 to 24) as measured by the observer-reported outcome (ObsRO) instrument.
Itching, Scratching, and Sleep Parameters. Itching, observed scratching, and sleep disturbance were recorded twice each day via eDiary. Patients and/or caregivers were instructed to complete the eDiary every day in the morning after the patient woke and in the evening just before the patient went to sleep throughout the study. The eDiary included ObsRO and PRO items. The PRO items assessed severity of itch, aspects of sleep disturbance (morning diary only), and tiredness. The ObsRO items assessed severity of observed scratching, aspects of observed sleep disturbance (morning diary only), and signs of tiredness (evening diary only). […]
Statistical Analyses. […] After a minimum of 18 patients had completed the Week 16 visit, the pooled SD of change from baseline to Month 4 (Weeks 13-16 assessments) and available change from baseline to Month 6 (Weeks 21-24 assessments) in average monthly scratching score was calculated by an independent statistician to assess the need for sample size re-estimation. […]

[2] = system: patients with Alagille syndrome (ALGS); test: Pooled ASSERT and ASSERT-EXT: sleep parameters; format: in vivo, human
Protocol: In the completed 24-week ASSERT study, patients with ALGS with history of significant pruritus and elevated serum BAs were randomized 2:1 to once-daily odevixibat 120 μg/kg or placebo, respectively. Patients who completed ASSERT could enter ASSERT-EXT, an ongoing, 72-week open-label extension study in which all patients receive odevixibat 120 μg/kg/day. This pooled analysis included all odevixibat-treated patients from ASSERT and/or ASSERT-EXT and spans from patients' first dose of odevixibat to a data cut-off of Sep. 9, 2022. Assessments over up to 36 weeks of treatment included change in observer-reported scratching scores and sleep parameters, as well as levels of serum BAs, autotaxin (a proposed meditator of pruritus), and 7 alpha-hydroxy-4-cholesten-3-one (C4; a marker of bile acid synthesis). Safety evaluations included assessment of alanine aminotransferase (ALT), total bilirubin, and treatment-emergent adverse events (TEAEs).

CCCCC1(CCCC)CN(c2ccccc2)c2cc(SC)c(OCC(=O)N[C@@H](C(=O)N[C@@H](CC)C(=O)O)c3ccc(O)cc3)cc2S(=O)(=O)N1 [odevixibat, 1,1-dioxo-3,3-dibutyl-5-phenyl-7-methylthio-8-(N-{(R)-α-[N-((S)-1-carboxypropyl)carbamoyl]-4-hydroxybenzyl}carbamoylmethoxy)-2,3,4,5-tetrahydro-1,2,5-benzothiadiazepine]
LS mean change from baseline in scratching score (ObsRO) ([1]; baseline to Weeks 21-24, 34 patients): −1.69 points
improvement in pruritus (mean monthly ObsRO scratching score) observed as early as ([1]; onset of effect): 1 week
percentage of patients who were pruritus responders (≥1-point reduction in monthly scratching score from baseline) ([1]; week 12): 74%
percentage of patients who were pruritus responders (≥1-point reduction in monthly scratching score from baseline) ([1]; week 24 (weeks 21-24), n=35): 80%
Days seeing blood due to scratching, Mean (SD) % of Days ([2]; Baseline, n=50): 35% (34%)
Days sleeping with caregiver, Mean (SD) % of Days ([2]; Baseline, n=50): 43% (45%)
Days with help falling asleep, Mean (SD) % of Days ([2]; Baseline, n=50): 57% (45%)
Days with soothing, Mean (SD) % of Days ([2]; Baseline, n=50): 64% (43%)
Days seeing blood due to scratching, Mean (SD) % of Days ([2]; Weeks 33-36, n=21): 5.7% (14%)
Days sleeping with caregiver, Mean (SD) % of Days ([2]; Weeks 33-36, n=21): 10% (26%)
Days with help falling asleep, Mean (SD) % of Days ([2]; Weeks 33-36, n=21): 10% (18%)
Days with soothing, Mean (SD) % of Days ([2]; Weeks 33-36, n=21): 12% (25%)
Days seeing blood due to scratching, Mean (95% CI) Change From Baseline to Week 33-36 ([2]; n=21): −30% (−42%, −17%)***
Days sleeping with caregiver, Mean (95% CI) Change From Baseline to Week 33-36 ([2]; n=21): −44% (−64%, −24%)***
Days with help falling asleep, Mean (95% CI) Change From Baseline to Week 33-36 ([2]; n=21): −60% (−78%, −43%)***
Days with soothing, Mean (95% CI) Change From Baseline to Week 33-36 ([2]; n=21): −59% (−77%, −40%)***

From patent US20240173333A1, “Treating Alagille Syndrome (ALGS)” (priority 2022, published 2024)
